Laboratory results reported in patent US20240217978A1 (CHONG KUN DANG PHARMACEUTICAL CORP., priority 2021, published 2024).

Target: human adenosine A2a receptor (Homo sapiens (Human), UniProt P29274)
Assay: A2a receptor binding affinity, [3H]-NECA radioligand binding test
Conditions: [3H]-NECA 37 nM; membrane from HEK-293 cells transfected with human adenosine A2a receptor
Procedure: The binding affinity of the compounds according to Examples of the present invention to the human adenosine A2a receptor was evaluated by entrusting SB drug discovery in the UK.
A radioligand binding test was conducted by using [3H]-NECA (5′-N-[adenine-2,8-3H]-ethylcarboxamidoadenosine) and an adenosine A2a membrane. As the adenosine A2a membrane, a cell membrane prepared from HEK-293 cells transfected with human adenosine A2a receptor was used. The membrane used for the test was prepared by incubating with a radioligand until equilibrium was reached. In order to separate the radioligand-bound membrane, the unbound radioligand was separated by using Packard filtermate Harverster and glass filter plates.
10 μL of test compound dissolved in binding buffer (50 mM Tris, 10 mM MgCl2, 1 mM EDTA pH 7.4) and 20 μL of [3H]-NECA (final concentration of 37 nM) or reference inhibitor was mixed with 20 μL of A2a membrane in an unbound 96-well plate and incubated at room temperature for one hour. Prior to filtration, a 96-well harvest filter plate was coated with 0.33% polyethylenimine for 30 minutes and then washed with assay buffer. The binding reaction was transferred to the filter plate and washed three times with wash buffer. The dish was then dried, scintillant was added, and radioactivity was counted in a scintillation counter (Topcount NXT, Packard).
The binding affinity IC50 (μM) for the human adenosine A2a receptor obtained according to the above experimental method is shown in the table below.

Chain of human adenosine A2a receptor (P29274 whole entry): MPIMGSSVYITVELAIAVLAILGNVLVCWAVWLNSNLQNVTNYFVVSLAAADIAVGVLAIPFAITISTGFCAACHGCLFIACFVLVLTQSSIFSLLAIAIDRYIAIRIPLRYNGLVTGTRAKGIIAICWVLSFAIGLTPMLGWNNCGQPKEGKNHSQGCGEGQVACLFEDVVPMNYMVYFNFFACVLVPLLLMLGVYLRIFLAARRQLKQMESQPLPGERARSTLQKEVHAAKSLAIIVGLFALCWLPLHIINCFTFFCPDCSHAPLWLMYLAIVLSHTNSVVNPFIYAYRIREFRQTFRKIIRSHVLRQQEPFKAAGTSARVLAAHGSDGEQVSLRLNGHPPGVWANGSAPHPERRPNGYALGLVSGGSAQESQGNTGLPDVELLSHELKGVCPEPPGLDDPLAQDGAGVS

| SMILES | IC50 [nM] |
| --- | --- |
| Nc1nc(N[C@@H](Cc2ccccc2)C(=O)N2CCC(Cc3ccccc3)CC2)nc2nc(-c3ccco3)nn12 [Example 2] | 1 |
| Nc1nc(N[C@@H](Cc2ccccc2)C(=O)N2CCC(COc3ccccc3)CC2)nc2nc(-c3ccco3)nn12 [Example 3, (S)-2-((7-amino-2-(furan-2-yl)-[1,2,4]triazolo[1,5-a][1,3,5]triazin-5-yl)amino)-1-(4-(phenoxymethyl)piperidin-1-yl)-3-phenylpropan-1-one] | 1 |
| Nc1nc(N[C@@H](Cc2ccccc2)C(=O)N2CCN(CC(F)(F)F)CC2)nc2nc(-c3ccco3)nn12 [Example 4] | 0.458 |
| CC(C)C(=O)N1CCN(C(=O)[C@H](Cc2ccccc2)Nc2nc(N)n3nc(-c4ccco4)nc3n2)CC1 [Example 5, (S)-2-((7-amino-2-(furan-2-yl)-[1,2,4]triazolo[1,5-a][1,3,5]triazin-5-yl)amino)-1-(4-isobutyrylpiperazin-1-yl)-3-phenylpropan-1-one] | 1.26 |
| Nc1nc(N[C@@H](Cc2ccccc2)C(=O)N2CCN(S(=O)(=O)c3ccccc3)CC2)nc2nc(-c3ccco3)nn12 [Example 6, (S)-2-((7-amino-2-(furan-2-yl)-[1,2,4]triazolo[1,5-a][1,3,5]triazin-5-yl)amino)-3-phenyl-1-(4-(phenylsulfonyl)piperazin-1-yl)propan-1-one] | 0.214 |
| Nc1nc(N[C@H](C(=O)N2CCN(c3ccc(F)cc3F)CC2)c2ccccc2)nc2nc(-c3ccco3)nn12 [Example 7, (S)-2-((7-amino-2-(furan-2-yl)-[1,2,4]triazolo[1,5-a][1,3,5]triazin-5-yl)amino)-1-(4-(2,4-difluorophenyl)piperazin-1-yl)-2-phenylethan-1-one] | 6.72 |
| Nc1nc(N[C@@H](CO)C(=O)N2CCN(c3ccc(F)cc3F)CC2)nc2nc(-c3ccco3)nn12 [Example 8, (S)-2-((7-amino-2-(furan-2-yl)-[1,2,4]triazolo[1,5-a][1,3,5]triazin-5-yl)amino)-1-(4-(2,4-difluorophenyl)piperazin-1-yl)-3-hydroxypropan-1-one] | 1.92 |
| C[C@H](Nc1nc(N)n2nc(-c3ccco3)nc2n1)C(=O)N1CCN(c2ccc(F)cc2F)CC1 [Example 9, (S)-2-((7-amino-2-(furan-2-yl)-[1,2,4]triazolo[1,5-a][1,3,5]triazin-5-yl)amino)-1-(4-(2,4-difluorophenyl)piperazin-1-yl)propan-1-one] | 2.42 |
| CC(C)[C@H](Nc1nc(N)n2nc(-c3ccco3)nc2n1)C(=O)N1CCN(c2ccc(F)cc2F)CC1 [Example 10, (S)-2-((7-amino-2-(furan-2-yl)-[1,2,4]triazolo[1,5-a][1,3,5]triazin-5-yl)amino)-1-(4-(2,4-difluorophenyl)piperazin-1-yl)-3-methylbutan-1-one] | 0.357 |
| Nc1nc(N[C@H](C(=O)N2CCN(c3ccc(F)cc3F)CC2)C2CCCCC2)nc2nc(-c3ccco3)nn12 [Example 11, (S)-2-((7-amino-2-(furan-2-yl)-[1,2,4]triazolo[1,5-a][1,3,5]triazin-5-yl)amino)-2-cyclohexyl-1-(4-(2,4-difluorophenyl)piperazin-1-yl)ethan-1-one] | 0.1 |
| Nc1nc(N2CCC[C@H]2C(=O)N2CCN(c3ccc(F)cc3F)CC2)nc2nc(-c3ccco3)nn12 [Example 12, (S)-(1-(7-amino-2-(furan-2-yl)-[1,2,4]triazolo[1,5-a][1,3,5]triazin-5-yl)pyrrolidin-2-yl)(4-(2,4-difluorophenyl)piperazin-1-yl)methanone] | 1.43 |
| Nc1nc(N[C@@H](Cc2ccccc2)C(=O)N2CCN(Cc3ccc(F)cc3F)CC2)nc2nc(-c3ccco3)nn12 [Example 13, (S)-2-((7-amino-2-(furan-2-yl)-[1,2,4]triazolo[1,5-a][1,3,5]triazin-5-yl)amino)-1-(4-(2,4-difluorobenzyl)piperazin-1-yl)-3-phenylpropan-1-one] | 0.1 |
| Nc1nc(N[C@H](C(=O)N2CCN(Cc3ccc(F)cc3F)CC2)c2ccccc2)nc2nc(-c3ccco3)nn12 [Example 14, (S)-2-((7-amino-2-(furan-2-yl)-[1,2,4]triazolo[1,5-a][1,3,5]triazin-5-yl)amino)-1-(4-(2,4-difluorobenzyl)piperazin-1-yl)-2-phenylethan-1-one] | 0.368 |
| Nc1nc(NCC(=O)N2CCN(Cc3ccc(F)cc3F)CC2)nc2nc(-c3ccco3)nn12 [Example 15, 2-((7-amino-2-(furan-2-yl)-[1,2,4]triazolo[1,5-a][1,3,5]triazin-5-yl)amino)-1-(4-(2,4-difluorobenzyl)piperazin-1-yl)ethan-1-one] | 6.02 |
| Nc1nc(N2CCC[C@H]2C(=O)N2CCN(Cc3ccc(F)cc3F)CC2)nc2nc(-c3ccco3)nn12 [Example 16, (S)-(1-(7-amino-2-(furan-2-yl)-[1,2,4]triazolo[1,5-a][1,3,5]triazin-5-yl)pyrrolidin-2-yl)(4-(2,4-difluorobenzyl)piperazin-1-yl)methanone] | 1.95 |
| Nc1nc(N[C@@H](Cc2ccccc2)C(=O)N2CCN(Cc3cccc(F)c3)CC2)nc2nc(-c3ccco3)nn12 [Example 17, (S)-2-((7-amino-2-(furan-2-yl)-[1,2,4]triazolo[1,5-a][1,3,5]triazin-5-yl)amino)-1-(4-(3-fluorobenzyl)piperazin-1-yl)-3-phenylpropan-1-one] | 0.135 |
| Nc1nc(N[C@@H](Cc2ccccc2)C(=O)N2CCN(Cc3ccc(F)cc3)CC2)nc2nc(-c3ccco3)nn12 [Example 18, (S)-2-((7-amino-2-(furan-2-yl)-[1,2,4]triazolo[1,5-a][1,3,5]triazin-5-yl)amino)-1-(4-(4-fluorobenzyl)piperazin-1-yl)-3-phenylpropan-1-one] | 0.125 |
| Nc1nc(N[C@@H](Cc2ccccc2)C(=O)N2CCC(N3CCOCC3)CC2)nc2nc(-c3ccco3)nn12 [Example 19, (S)-2-((7-amino-2-(furan-2-yl)-[1,2,4]triazolo[1,5-a][1,3,5]triazin-5-yl)amino)-1-(4-morpholinopiperidin-1-yl)-3-phenylpropan-1-one] | 15 |
| Nc1nc(N[C@@H](Cc2ccccc2)C(=O)N2CCCN(Cc3ccccc3)CC2)nc2nc(-c3ccco3)nn12 [Example 20, (S)-2-((7-amino-2-(furan-2-yl)-[1,2,4]triazolo[1,5-a][1,3,5]triazin-5-yl)amino)-1-(4-benzyl-1,4-diazepan-1-yl)-3-phenylpropan-1-one] | 20 |
| C[C@H](Nc1nc(N)n2nc(-c3ccco3)nc2n1)C(=O)N1CCN(Cc2ccccc2)CC1 [Example 21, (S)-2-((7-amino-2-(furan-2-yl)-[1,2,4]triazolo[1,5-a][1,3,5]triazin-5-yl)amino)-1-(4-benzylpiperazin-1-yl)propan-1-one] | 30 |
| C[C@H](Nc1nc(N)n2nc(-c3ccco3)nc2n1)C(=O)N1CCN(Cc2ccccc2F)CC1 [Example 22, (S)-2-((7-amino-2-(furan-2-yl)-[1,2,4]triazolo[1,5-a][1,3,5]triazin-5-yl)amino)-1-(4-(2-fluorobenzyl)piperazin-1-yl)propan-1-one] | 11 |
| C[C@H](Nc1nc(N)n2nc(-c3ccco3)nc2n1)C(=O)N1CCN(Cc2ccc(F)cc2)CC1 [Example 23, (S)-2-((7-amino-2-(furan-2-yl)-[1,2,4]triazolo[1,5-a][1,3,5]triazin-5-yl)amino)-1-(4-(4-fluorobenzyl)piperazin-1-yl)propan-1-one] | 61 |
| COc1cccc(CN2CCN(C(=O)[C@H](C)Nc3nc(N)n4nc(-c5ccco5)nc4n3)CC2)c1 [Example 24, (S)-2-((7-amino-2-(furan-2-yl)-[1,2,4]triazolo[1,5-a][1,3,5]triazin-5-yl)amino)-1-(4-(3-methoxybenzyl)piperazin-1-yl)propan-1-one] | 33 |
| C[C@H](Nc1nc(N)n2nc(-c3ccco3)nc2n1)C(=O)N1CCN(CC(F)(F)F)CC1 [Example 25, (S)-2-((7-amino-2-(furan-2-yl)-[1,2,4]triazolo[1,5-a][1,3,5]triazin-5-yl)amino)-1-(4-(2,2,2-trifluoroethyl)piperazin-1-yl)propan-1-one] | 10 |
| CC(C)(F)CN1CCN(C(=O)[C@@H]2CCCN2c2nc(N)n3nc(-c4ccco4)nc3n2)CC1 [Example 26, (S)-(1-(7-amino-2-(furan-2-yl)-[1,2,4]triazolo[1,5-a][1,3,5]triazin-5-yl)pyrrolidin-2-yl)(4-(2-fluoro-2-methylpropyl)piperazin-1-yl)methanone] | 4 |
| Nc1nc(N2CCC[C@H]2C(=O)N2CCN(Cc3ccccc3)CC2)nc2nc(-c3ccco3)nn12 [Example 27, (S)-(1-(7-amino-2-(furan-2-yl)-[1,2,4]triazolo[1,5-a][1,3,5]triazin-5-yl)pyrrolidin-2-yl)(4-benzylpiperazin-1-yl)methanone] | 7 |
| CC(C)(F)CN1CCN(C(=O)[C@H](Cc2ccccc2)Nc2nc(N)n3nc(-c4ccco4)nc3n2)CC1 [Example 28, (S)-2-((7-amino-2-(furan-2-yl)-[1,2,4]triazolo[1,5-a][1,3,5]triazin-5-yl)amino)-1-(4-(2-fluoro-2-methylpropyl)piperazin-1-yl)-3-phenylpropan-1-one] | 8 |
| Nc1nc(N2CCCC[C@H]2C(=O)N2CCN(Cc3ccc(F)cc3F)CC2)nc2nc(-c3ccco3)nn12 [Example 29, (S)-(1-(7-amino-2-(furan-2-yl)-[1,2,4]triazolo[1,5-a][1,3,5]triazin-5-yl)piperidin-2-yl)(4-(2,4-difluorobenzyl)piperazin-1-yl)methanone] | 8 |
